For this test, the system named is U2OS cells. Description: Multicolor competition assay (MCA) of DNA damage sensitivity. The test is classed as cell-based. Conditions: 7 days of culture, read-out: concentration resulting in about 50% survival of non-transfected cells. On the procedure:
U2OS cells were infected with MSCVgfp or MSCVdsRed, which were packaged in 293T by co-transfection with VSVG vector using TransIT-293 (Minis). Without selection, the cells were sorted using the Aria Sorter (BD) for intermediate expression. The gfp cells grew slightly faster than the rfp cells and this was taken into account when calculating the changes in survival due to treatment with DNA damaging agents. siRNA transfections were performed as described above with gfp cells being transfected with a control siRNA (luciferase) and rfp cells with an siRNA of interest. On the third day after transfections, gfp and rfp cells were counted and mixed in 1 to 1 ratio and were left untreated or were treated with IR or MMC. The concentration of Mitomycin C (Sigma) was chosen to result in about 50% survival of non-transfected cells, which was about 70 nM MMC for U2OS cells. After 7 days of culture, all cells were collected and analyzed using Cytomix FC500 Analyzer (Beckman Coulter). […]
Two populations of U20S (osteosarcoma) cells differing only in their color were created by expression of red fluorescent protein (RFP) or green fluorescent protein (GFP). siRNA depletion of the protein of interest was carried out in the […] were transfected with control siRNA. […] After 7 days, cells were harvested and a ratio of red to green cells was determined using flow cytometry. […]

`CO[C@@]12[C@H](COC(N)=O)C3=C(C(=O)C(C)=C(N)C3=O)N1C[C@@H]1N[C@@H]12` [Mitomycin C]: the IC50 is roughly 70 nM.

The values are drawn from patent publication US20130280258A1, “PROGNOSTIC, DIAGNOSTIC, AND CANCER THERAPEUTIC USES OF FANCI AND FANCI MODULATING AGENTS” (Miltenyi Biotec GmbH, priority 2007, published 2013).
